{"source": "patent US7282339B2", "about": "“Competitive immunoassay” (Invitrogen Corporation, priority 2003, dated 2007)", "system": "ligand-detection complex of Compound 15 and P-Tyr-100 antiphosphotyrosine monoclonal antibody", "assay": "Displacement of phosphotyramide-dye ligand analog by phosphotyrosine (Example 21)", "format": "binding, mouse", "details": "10 μM", "method": "Solutions containing 100 nM ligand analog Compound 15 or ligand-detection complex (100 nM (B573-85-HCK)+100 nM P-Tyr-100 antiphosphotyrosine monoclonal antibody (Cell Signaling Technology, Beverly, Mass.)) were prepared in 50 mM Tris-HCl pH 7.5, 10 mM MgCl2, 0.01% Brij-35, 100 μM ATP, 2 mM DTT, 1 mM EGTA. Fluorescence emission spectra of these samples were recorded on a Hitach F-4500 spectrofluorometer using an excitation wavelength of 470 nm. O-phosho-L-tyrosine (Sigma Chemical Co., St. Louis, Mo.) or phosphotyrosine peptide (phospho-pp60 c-src (521-533); TSTEPQY*QPGENL, Bachem California, Inc. Torrance, Calif.) at a concentration of 10 μM were added to samples of the detection complex and the resulting change in fluorescence was measured. See, FIG. 13."}
{"smiles": "N[C@@H](Cc1ccc(OP(=O)(O)O)cc1)C(=O)O", "note": "[Phosphotyrosine, O-phosho-L-tyrosine]", "values": [{"measurement": "displacement of phosphotyramide-dye ligand analog from antibody binding sites", "result": "Minimal Displacement"}]}
